From patent US7138361B2, “Herbicidal heterocycles” (E. I. du Pont de Nemours and Company, priority 2000, dated 2006)

Legend:
Assay type in all cases: in vivo
[1] = tested on: Surinam grass (Brachiaria decumbens); assay: Test B postemergence; settings: 13 to 15 days
Summary of the method: (§1)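 Post-treatment, species sat 13–15 days under greenhouse conditions before visual scoring against controls, 0 (no effect) through 100 (complete control). Application preemergence to sown seeds or postemergence at 1- to 4-leaf stage, using a non-phytotoxic solvent/surfactant formulation.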

[2] = tested on: barnyardgrass (Echinochloa crus-galli); assay: Test B postemergence; settings: 13 to 15 days
Summary of the method: as §1

[3] = tested on: blackgrass (Alopecurus myosuroides); assay: Test B postemergence; settings: 13 to 15 days
Summary of the method: as §1

[4] = tested on: cocklebur (Xanthium strumarium); assay: Test B postemergence; settings: 13 to 15 days
Summary of the method: as §1

[5] = tested on: corn (Zea mays); assay: Test B postemergence; settings: 13 to 15 days
Summary of the method: as §1

[6] = tested on: crabgrass (Digitaria sanguinalis); assay: Test B postemergence; settings: 13 to 15 days
Summary of the method: as §1

[7] = tested on: giant foxtail (Setaria faberii); assay: Test B postemergence; settings: 13 to 15 days
Summary of the method: as §1

[8] = tested on: lambsquarters (Chenopodium album); assay: Test B postemergence; settings: 13 to 15 days
Summary of the method: as §1

[9] = tested on: morning glory (Ipomoea hederacea); assay: Test B postemergence; settings: 13 to 15 days
Summary of the method: as §1

[10] = tested on: pigweed (Amaranthus retroflexus); assay: Test B postemergence; settings: 13 to 15 days
Summary of the method: as §1

[11] = tested on: velvetleaf (Abutilon theophrasti); assay: Test B postemergence; settings: 13 to 15 days
Summary of the method: as §1

[12] = tested on: wheat (Triticum aestivum); assay: Test B postemergence; settings: 13 to 15 days
Summary of the method: as §1

[13] = tested on: wild oat (Avena fatua); assay: Test B postemergence; settings: 13 to 15 days
Summary of the method: as §1

[14] = tested on: Surinam grass (Brachiaria decumbens); assay: Test B preemergence
Summary of the method: as §1

[15] = tested on: barnyardgrass (Echinochloa crus-galli); assay: Test B preemergence
Summary of the method: as §1

[16] = tested on: cocklebur (Xanthium strumarium); assay: Test B preemergence
Summary of the method: as §1

[17] = tested on: corn (Zea mays); assay: Test B preemergence
Summary of the method: as §1

[18] = tested on: crabgrass (Digitaria sanguinalis); assay: Test B preemergence
Summary of the method: as §1

[19] = tested on: giant foxtail (Setaria faberii); assay: Test B preemergence
Summary of the method: as §1

[20] = tested on: lambsquarters (Chenopodium album); assay: Test B preemergence
Summary of the method: as §1

[21] = tested on: morning glory (Ipomoea hederacea); assay: Test B preemergence
Summary of the method: as §1

[22] = tested on: pigweed (Amaranthus retroflexus); assay: Test B preemergence
Summary of the method: as §1

[23] = tested on: rice (Oryza saliva); assay: Test B preemergence
Summary of the method: as §1

[24] = tested on: velvetleaf (Abutilon theophrasti); assay: Test B preemergence
Summary of the method: as §1

[25] = tested on: barnyardgrass (Echinochloa crus-galli); assay: Test B flooded paddy test; settings: Rate 1000 g/ha, scale of 0 to 100 where 0 is no effect and 100 is complete control, visually evaluated after 13 to 15 days
Summary of the method: (§2)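 Greenhouse-held for 13 to 15 days after treatment at the 2-leaf stage, paddy-grown plants were scored visually against controls on a 0-to-100 control scale; a dash marks no test result.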

[26] = tested on: duck salad (Heteranthera limosa); assay: Test B flooded paddy test; settings: Rate 1000 g/ha, scale of 0 to 100 where 0 is no effect and 100 is complete control, visually evaluated after 13 to 15 days
Summary of the method: as §2

[27] = tested on: rice (Oryza saliva); assay: Test B flooded paddy test; settings: Rate 1000 g/ha, scale of 0 to 100 where 0 is no effect and 100 is complete control, visually evaluated after 13 to 15 days
Summary of the method: as §2

[28] = tested on: smallflower flatsedge (Cyperus difformis); assay: Test B flooded paddy test; settings: Rate 1000 g/ha, scale of 0 to 100 where 0 is no effect and 100 is complete control, visually evaluated after 13 to 15 days
Summary of the method: as §2

[29] = tested on: barnyardgrass (Echinochloa crus-galli); assay: Test C flooded paddy test; settings: for Barnyardgrass plant response rating: Flooded Paddy, scale 0 to 100, 0 no effect, 100 complete control; for Plant response rating, Barnyardgrass: flooded paddy test, scale 0 to 100 (0 no effect, 100 complete control)
Summary of the method: (§3)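 Rice and three paddy weeds were grown to the 2-leaf stage under flooded conditions, then treated and kept in a greenhouse for 12–14 days. Response was rated visually against untreated controls on a 0–100 scale, where 100 is complete control.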

[30] = tested on: duck salad (Heteranthera limosa); assay: Test C flooded paddy test; settings: for Ducksalad plant response rating: Flooded Paddy, scale 0 to 100, 0 no effect, 100 complete control; for Plant response rating, Ducksalad: flooded paddy test, scale 0 to 100 (0 no effect, 100 complete control)
Summary of the method: as §3

[31] = tested on: rice (Oryza saliva); assay: Test C flooded paddy test; settings: for Rice plant response rating: Flooded Paddy, scale 0 to 100, 0 no effect, 100 complete control; for Plant response rating, Rice: flooded paddy test, scale 0 to 100 (0 no effect, 100 complete control)
Summary of the method: as §3

[32] = tested on: smallflower flatsedge (Cyperus difformis); assay: Test C flooded paddy test; settings: for Flatsedge plant response rating: Flooded Paddy, scale 0 to 100, 0 no effect, 100 complete control; for Plant response rating, Flatsedge: flooded paddy test, scale 0 to 100 (0 no effect, 100 complete control)
Summary of the method: as §3

[33] = Rate 125 g/ha, scale 0 (no effect) to 100 (complete control)
[34] = Rate 500 g/ha, scale 0 to 100, 0 is no effect, 100 is complete control
[35] = Preemergence, Rate 500 g/ha, scale 0 to 100, 0 no effect, 100 complete control
[36] = preemergence, Rate 125 g/ha, scale of 0 to 100 where 0 is no effect and 100 is complete control, 13 to 15 days

CC(C)(C)c1ccn(C2CCN(c3cc(Cl)cc(Cl)c3)C2=O)n1 (stereo not shown) [Compound 55]
Plant response rating, Surinam grass [1, 33]: 0 | Plant response rating, Surinam grass [1, 34]: 0 | Plant response rating, Barnyardgrass [2, 33]: 0 | Plant response rating, Barnyardgrass [2, 34]: 0 | Plant response rating, Blackgrass [3, 33]: 0 | Plant response rating, Blackgrass [3, 34]: 0 | Plant response rating, Cocklebur [4, 33]: 10 | Plant response rating, Cocklebur [4, 34]: 10 | Plant response rating, Corn [5, 33]: 0 | Plant response rating, Corn [5, 34]: 0 | Plant response rating, Crabgrass [6, 33]: 0 | Plant response rating, Crabgrass [6, 34]: 0 | Plant response rating, Foxtail, Giant [7, 33]: 0 | Plant response rating, Foxtail, Giant [7, 34]: 0 | Plant response rating, Lambsquarters [8, 33]: 0 | Plant response rating, Lambsquarters [8, 34]: 0 | Plant response rating, Morningglory [9, 33]: 0 | Plant response rating, Morningglory [9, 34]: 30 | Plant response rating, Pigweed [10, 33]: 0 | Plant response rating, Pigweed [10, 34]: 0 | Plant response rating, Velvetleaf [11, 33]: 0 | Plant response rating, Velvetleaf [11, 34]: 0 | Plant response rating, Wheat [12, 33]: 0 | Plant response rating, Wheat [12, 34]: 0 | Plant response rating, Wild Oat [13, 33]: 0 | Plant response rating, Wild Oat [13, 34]: 0 | Plant response rating, Surinam grass [14, 35]: 0 | Plant response rating, Surinam grass [14, 36]: 0 | Plant response rating, Barnyardgrass [15, 35]: 0 | Plant response rating, Barnyardgrass [15, 36]: 0 | Plant response rating, Cocklebur [16, 36]: 0 | Plant response rating, Corn [17, 35]: 0 | Plant response rating, Corn [17, 36]: 0 | Plant response rating, Crabgrass [18, 35]: 0 | Plant response rating, Crabgrass [18, 36]: 0 | Plant response rating, Foxtail, Giant [19, 35]: 0 | Plant response rating, Foxtail, Giant [19, 36]: 0 | Plant response rating, Lambsquarters [20, 35]: 0 | Plant response rating, Lambsquarters [20, 36]: 0 | Plant response rating, Morningglory [21, 35]: 0 | Plant response rating, Morningglory [21, 36]: 0 | Plant response rating, Pigweed [22, 35]: 0 | Plant response rating, Rice [23, 35]: 0 | Plant response rating, Rice [23, 36]: 0 | Plant response rating, Velvetleaf [24, 35]: 0 | Plant response rating, Velvetleaf [24, 36]: 0 | Plant response rating, Barnyardgrass [25]: 100 | Plant response rating, Ducksalad [26]: 80 | Plant response rating, Rice [27]: 0 | Plant response rating, Flatsedge [28]: 100 | Barnyardgrass plant response rating ([29]; Rate 250 g/ha): 100 | Barnyardgrass plant response rating ([29]; Rate 500 g/ha): 100 | Plant response rating, Barnyardgrass ([29]; Rate 62 g/ha): 0 | Plant response rating, Barnyardgrass ([29]; Rate 125 g/ha): 50 | Ducksalad plant response rating ([30]; Rate 250 g/ha): 50 | Ducksalad plant response rating ([30]; Rate 500 g/ha): 50 | Plant response rating, Ducksalad ([30]; Rate 62 g/ha): 0 | Plant response rating, Ducksalad ([30]; Rate 125 g/ha): 40 | Rice plant response rating ([31]; Rate 250 g/ha): 0 | Rice plant response rating ([31]; Rate 500 g/ha): 0 | Plant response rating, Rice ([31]; Rate 62 g/ha): 0 | Plant response rating, Rice ([31]; Rate 125 g/ha): 0 | Flatsedge plant response rating ([32]; Rate 250 g/ha): 90 | Flatsedge plant response rating ([32]; Rate 500 g/ha): 100 | Plant response rating, Flatsedge ([32]; Rate 62 g/ha): 40 | Plant response rating, Flatsedge ([32]; Rate 125 g/ha): 90

CCC(C)Oc1ccn(C2CCN(c3cccc(C(F)(F)F)c3)C2=O)n1 (stereo not shown) [Compound 58]
Plant response rating, Surinam grass [1, 33]: 0 | Plant response rating, Surinam grass [1, 34]: 0 | Plant response rating, Barnyardgrass [2, 33]: 0 | Plant response rating, Barnyardgrass [2, 34]: 0 | Plant response rating, Blackgrass [3, 33]: 0 | Plant response rating, Blackgrass [3, 34]: 0 | Plant response rating, Cocklebur [4, 33]: 0 | Plant response rating, Cocklebur [4, 34]: 0 | Plant response rating, Corn [5, 33]: 0 | Plant response rating, Corn [5, 34]: 0 | Plant response rating, Crabgrass [6, 33]: 0 | Plant response rating, Crabgrass [6, 34]: 0 | Plant response rating, Foxtail, Giant [7, 33]: 0 | Plant response rating, Foxtail, Giant [7, 34]: 0 | Plant response rating, Lambsquarters [8, 33]: 0 | Plant response rating, Lambsquarters [8, 34]: 0 | Plant response rating, Morningglory [9, 33]: 0 | Plant response rating, Morningglory [9, 34]: 0 | Plant response rating, Pigweed [10, 33]: 0 | Plant response rating, Pigweed [10, 34]: 0 | Plant response rating, Velvetleaf [11, 33]: 0 | Plant response rating, Velvetleaf [11, 34]: 0 | Plant response rating, Wheat [12, 33]: 0 | Plant response rating, Wheat [12, 34]: 0 | Plant response rating, Wild Oat [13, 33]: 0 | Plant response rating, Wild Oat [13, 34]: 0 | Plant response rating, Surinam grass [14, 35]: 0 | Plant response rating, Surinam grass [14, 36]: 0 | Plant response rating, Barnyardgrass [15, 35]: 70 | Plant response rating, Barnyardgrass [15, 36]: 0 | Plant response rating, Cocklebur [16, 35]: 0 | Plant response rating, Cocklebur [16, 36]: 0 | Plant response rating, Corn [17, 35]: 0 | Plant response rating, Corn [17, 36]: 0 | Plant response rating, Crabgrass [18, 35]: 80 | Plant response rating, Crabgrass [18, 36]: 0 | Plant response rating, Foxtail, Giant [19, 35]: 70 | Plant response rating, Foxtail, Giant [19, 36]: 0 | Plant response rating, Lambsquarters [20, 35]: 0 | Plant response rating, Lambsquarters [20, 36]: 0 | Plant response rating, Morningglory [21, 35]: 0 | Plant response rating, Morningglory [21, 36]: 0 | Plant response rating, Pigweed [22, 35]: 0 | Plant response rating, Pigweed [22, 36]: 0 | Plant response rating, Rice [23, 35]: 0 | Plant response rating, Rice [23, 36]: 0 | Plant response rating, Velvetleaf [24, 35]: 0 | Plant response rating, Barnyardgrass [25]: 90 | Plant response rating, Ducksalad [26]: 70 | Plant response rating, Rice [27]: 20 | Plant response rating, Flatsedge [28]: 80 | Barnyardgrass plant response rating ([29]; Rate 250 g/ha): 0 | Barnyardgrass plant response rating ([29]; Rate 500 g/ha): 20 | Plant response rating, Barnyardgrass ([29]; Rate 62 g/ha): 0 | Plant response rating, Barnyardgrass ([29]; Rate 125 g/ha): 0 | Ducksalad plant response rating ([30]; Rate 250 g/ha): 0 | Ducksalad plant response rating ([30]; Rate 500 g/ha): 0 | Plant response rating, Ducksalad ([30]; Rate 62 g/ha): 0 | Plant response rating, Ducksalad ([30]; Rate 125 g/ha): 0 | Rice plant response rating ([31]; Rate 250 g/ha): 0 | Rice plant response rating ([31]; Rate 500 g/ha): 0 | Plant response rating, Rice ([31]; Rate 62 g/ha): 0 | Plant response rating, Rice ([31]; Rate 125 g/ha): 0 | Flatsedge plant response rating ([32]; Rate 250 g/ha): 0 | Flatsedge plant response rating ([32]; Rate 500 g/ha): 30 | Plant response rating, Flatsedge ([32]; Rate 62 g/ha): 0 | Plant response rating, Flatsedge ([32]; Rate 125 g/ha): 0
